Experimental data taken from PubChem BioAssay AID192 (DTP/NCI, 2004).
Inconclusive results and toxic doses are left out. Rule for the calls: active = survival T/C of 150% or more; inactive = T/C below 125% in these data.

Test system: BDF1 mice, B16 melanoma ip, median survival T/C
Test: NCI In Vivo Anticancer Drug Screen. Data for tumor model B16 Melanoma (intraperitoneal) in B6D2F1 (BDF1) mice
Conditions: endpoint: median survival time, higher = longer survival
Summary of the method: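 Each result divides a survival or tumor-size measurement in the compound-treated group by the same measurement in the vehicle group.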

[1] = dose: 12.5 mg/kg/injection, schedule: Q01DX009 (ip), vehicle: saline
[2] = dose: 25.0 mg/kg/injection, schedule: Q01DX009 (ip), vehicle: saline
[3] = dose: 25.0 mg/kg/injection, schedule: Q01DX009 (ip), vehicle: Klucel (hydroxypropylcellulose) (HPC)
[4] = dose: 100.0 mg/kg/injection, schedule: Q01DX009 (ip), vehicle: Klucel (hydroxypropylcellulose) (HPC)
[5] = dose: 200.0 mg/kg/injection, schedule: Q01DX009 (ip), vehicle: Klucel (hydroxypropylcellulose) (HPC)
[6] = dose: 400.0 mg/kg/injection, schedule: Q01DX009 (ip), vehicle: Klucel (hydroxypropylcellulose) (HPC)
[7] = dose: 50.0 mg/kg/injection, schedule: Q01DX009 (ip), vehicle: saline
[8] = dose: 6.25 mg/kg/injection, schedule: Q01DX009 (ip), vehicle: saline with Tween-80

Measured: T/C

COc1cc2c(cc1OC)C(C#N)N(C(=O)c1ccccc1)C=C2 (configuration not stated)
inactive: dose: 0.1 mg/kg/injection, schedule: Q01DX009 (ip), vehicle: other 102 % of control | dose: 0.19 mg/kg/injection, schedule: Q01DX009 (ip), vehicle: other 104 % of control | dose: 0.38 mg/kg/injection, schedule: Q01DX009 (ip), vehicle: other 107 % of control | dose: 0.75 mg/kg/injection, schedule: Q01DX009 (ip), vehicle: other 111 % of control | dose: 1.5 mg/kg/injection, schedule: Q01DX009 (ip), vehicle: other 112 % of control

O=C1C(=O)c2cccc3cccc1c23
inactive: [1] 88 % of control | [2] 94 % of control

COc1cc(Cc2nccc3cc(OC)c(OC)cc23)c(C(C)=O)c(OC)c1
inactive: dose: 10.0 mg/kg/injection, schedule: Q01DX009 (ip), vehicle: saline 101 % of control | dose: 20.0 mg/kg/injection, schedule: Q01DX009 (ip), vehicle: saline 107 % of control | dose: 40.0 mg/kg/injection, schedule: Q01DX009 (ip), vehicle: saline 107 % of control | dose: 80.0 mg/kg/injection, schedule: Q01DX009 (ip), vehicle: saline 107 % of control

CC(=O)CC(=O)Nc1cccc([N+](=O)[O-])c1
inactive: [3] 100 % of control | [4] 94 % of control

C=C(OC1C(C)=C2C(C1OC(=O)CCCCCCC)C(C)(OC(C)=O)CC(OC(=O)CCC)C1(O)C2OC(=O)C1(C)O)/C(C)=C/C (configuration not stated)
inactive: dose: 0.37 mg/kg/injection, schedule: Q01DX009 (ip), vehicle: Klucel (hydroxypropylcellulose) (HPC) 97 % of control | dose: 1.5 mg/kg/injection, schedule: Q01DX009 (ip), vehicle: Klucel (hydroxypropylcellulose) (HPC) 99 % of control | dose: 3.0 mg/kg/injection, schedule: Q01DX009 (ip), vehicle: Klucel (hydroxypropylcellulose) (HPC) 115 % of control

Cc1ccc2c(c1)CN(Cc1ccccc1)CO2
inactive: [4] 93 % of control | [5] 96 % of control | [6] 96 % of control

CC1CN1P(=O)(OCCC#N)N1CC1C (configuration not stated)
inactive: [7] 121 % of control | dose: 100.0 mg/kg/injection, schedule: Q01DX009 (ip), vehicle: saline 115 % of control | dose: 200.0 mg/kg/injection, schedule: Q01DX009 (ip), vehicle: saline 120 % of control

CC(C)=CCC1(O)C(=O)c2ccccc2C1(O)C(=O)O (configuration not stated)
inactive: [3] 92 % of control | dose: 50.0 mg/kg/injection, schedule: Q01DX009 (ip), vehicle: Klucel (hydroxypropylcellulose) (HPC) 101 % of control | [4] 90 % of control | [5] 93 % of control

COc1cc(C(=O)CC(O)(C(F)(F)F)C(F)(F)F)cc(OC)c1OC
inactive: dose: 50.0 mg/kg/injection, schedule: Q04DX003 (ip), vehicle: Klucel (hydroxypropylcellulose) (HPC) 100 % of control | dose: 100.0 mg/kg/injection, schedule: Q04DX003 (ip), vehicle: Klucel (hydroxypropylcellulose) (HPC) 110 % of control | dose: 200.0 mg/kg/injection, schedule: Q04DX003 (ip), vehicle: Klucel (hydroxypropylcellulose) (HPC) 97 % of control

S=C([S][Sn]([c]1ccccc1)([c]1ccccc1)[c]1ccccc1)N1CCOCC1
inactive: dose: 1.56 mg/kg/injection, schedule: Q01DX009 (ip), vehicle: saline with Tween-80 107 % of control | dose: 3.13 mg/kg/injection, schedule: Q01DX009 (ip), vehicle: saline with Tween-80 100 % of control | [8] 110 % of control

CCOc1ccc([NH-])c([NH-])c1.[Cl][Pt+2][Cl]
inactive: dose: 2.5 mg/kg/injection, schedule: Q01DX009 (ip), vehicle: distilled water + Tween-80 115 % of control | dose: 5.0 mg/kg/injection, schedule: Q01DX009 (ip), vehicle: distilled water + Tween-80 115 % of control | dose: 10.0 mg/kg/injection, schedule: Q01DX009 (ip), vehicle: distilled water + Tween-80 117 % of control | dose: 20.0 mg/kg/injection, schedule: Q01DX009 (ip), vehicle: distilled water + Tween-80 102 % of control

O=C(C=C(C(F)(F)F)C(F)(F)F)c1cccc([N+](=O)[O-])c1
inactive: dose: 0.2 mg/kg/injection, schedule: Q01DX009 (ip), vehicle: saline 95 % of control | dose: 0.4 mg/kg/injection, schedule: Q01DX009 (ip), vehicle: saline 102 % of control | dose: 0.8 mg/kg/injection, schedule: Q01DX009 (ip), vehicle: saline 95 % of control | [8] 86 % of control | dose: 6.25 mg/kg/injection, schedule: Q04DX003 (ip), vehicle: saline with Tween-80 113 % of control | dose: 25.0 mg/kg/injection, schedule: Q04DX003 (ip), vehicle: saline with Tween-80 111 % of control

CCCCCCCCCCCC[S+](C)C
inactive: dose: 2.0 mg/kg/injection, schedule: Q01DX009 (ip), vehicle: saline sonified 89 % of control | dose: 4.0 mg/kg/injection, schedule: Q01DX009 (ip), vehicle: saline sonified 102 % of control | dose: 5.0 mg/kg/injection, schedule: Q01DX009 (ip), vehicle: Klucel (hydroxypropylcellulose) (HPC) 97 % of control | dose: 8.0 mg/kg/injection, schedule: Q01DX009 (ip), vehicle: saline sonified 107 % of control | dose: 10.0 mg/kg/injection, schedule: Q01DX009 (ip), vehicle: Klucel (hydroxypropylcellulose) (HPC) 100 % of control | dose: 16.0 mg/kg/injection, schedule: Q01DX009 (ip), vehicle: saline sonified 100 % of control | dose: 20.0 mg/kg/injection, schedule: Q01DX009 (ip), vehicle: Klucel (hydroxypropylcellulose) (HPC) 88 % of control

Nc1cccs1
inactive: [1] 108 % of control | [2] 99 % of control | [7] 94 % of control

CC(=O)CC(=O)N1CCCCC1C (configuration not stated)
inactive: [4] 109 % of control | [5] 112 % of control | [6] 110 % of control

O=C1CC(c2ccc(OCN(CCCl)CCCl)cc2)CC(=O)C1CN(CCCl)CCCl (configuration not stated)
inactive: dose: 0.5 mg/kg/injection, schedule: Q01DX009 (ip), vehicle: Klucel (hydroxypropylcellulose) (HPC) 97 % of control | dose: 1.0 mg/kg/injection, schedule: Q01DX009 (ip), vehicle: Klucel (hydroxypropylcellulose) (HPC) 100 % of control | dose: 2.0 mg/kg/injection, schedule: Q01DX009 (ip), vehicle: Klucel (hydroxypropylcellulose) (HPC) 100 % of control | dose: 4.0 mg/kg/injection, schedule: Q01DX009 (ip), vehicle: Klucel (hydroxypropylcellulose) (HPC) 99 % of control | dose: 8.0 mg/kg/injection, schedule: Q01DX009 (ip), vehicle: Klucel (hydroxypropylcellulose) (HPC) 104 % of control

c1ccc(-c2csc3c4ccccc4c4ccccc4[n+]23)cc1
inactive: dose: 0.5 mg/kg/injection, schedule: Q01DX009 (ip), vehicle: saline with Tween-80 95 % of control | dose: 1.0 mg/kg/injection, schedule: Q01DX009 (ip), vehicle: saline with Tween-80 95 % of control | dose: 2.0 mg/kg/injection, schedule: Q01DX009 (ip), vehicle: saline with Tween-80 93 % of control

Cc1nc(C(=O)O)c(C)c(=O)[nH]1
inactive: dose: 1.56 mg/kg/injection, schedule: Q01DX009 (ip), vehicle: water 100 % of control | dose: 3.13 mg/kg/injection, schedule: Q01DX009 (ip), vehicle: water 96 % of control | dose: 6.25 mg/kg/injection, schedule: Q01DX009 (ip), vehicle: water 105 % of control | dose: 12.5 mg/kg/injection, schedule: Q01DX009 (ip), vehicle: water 100 % of control

COC1CC(OC2CCC3(C)C(CCC45OC46CCC(C4=CC(=O)OC4)C6(C)CCC35)C2)OC(C)C1O (configuration not stated)
inactive: dose: 1.2 mg/kg/injection, schedule: Q01DX009 (ip), vehicle: saline 98 % of control | dose: 1.8 mg/kg/injection, schedule: Q01DX009 (ip), vehicle: saline 101 % of control | dose: 2.75 mg/kg/injection, schedule: Q01DX009 (ip), vehicle: saline 87 % of control | [1] 96 % of control | [2] 89 % of control
